Measured values as given in patent US20240352022A1, “GROUP OF IMB-C5 SERIES COMPOUNDS HAVING ANTI-CORONAVIRUS ACTIVITY AND APPLICATION THEREOF” (priority 2021, published 2024).
pEC50: −log10 of the molar value.

Tests used:
[1] = CCK-8 cytotoxicity assay in Huh7 cells; type: cell-based; conditions: human, Huh7 hepatocellular carcinoma cells, CCK-8, 48 hours, read-out: TC50
Experimental: (§1) In order to determine the possible cytotoxicity of IMB-C5 and IMB-85, the CCK-8 assay was first used to detect the effect of the two compounds at different concentrations on viability of different cells 48 hours after administration.

[2] = test system: HCoV-229E; assay: mRNA level of HCoV-229E N protein in Huh7 cells (RT-qPCR); type: cell-based, Human coronavirus HCoV-229E; conditions: 24 h
[3] = test system: HCoV-229E; assay: dsRNA production during replication of HCoV-229E in Huh7 cells (immunofluorescence assay); type: cell-based, Human coronavirus HCoV-229E
[4] = test system: HCoV-229E; assay: N protein level of HCoV-229E in Huh7.5 cells (Western Blotting); type: cell-based, Human coronavirus HCoV-229E; conditions: MOI=1, different concentrations, 24 h
[5] = test system: HCoV-229E; assay: anti-HCoV-229E activity in Huh7.5 cells by cytopathic effect (CPE) assay; type: cell-based, Human coronavirus HCoV-229E; conditions: Human coronavirus 229E, HCoV-229E 100 TCID50 in Huh7.5 cells, about 48 h
[6] = CCK-8 cytotoxicity assay in Huh7.5 cells; type: cell-based; conditions: human, Huh7.5 hepatocellular carcinoma cells, CCK-8, 48 hours, read-out: TC50
Experimental: as §1

[7] = test system: HCoV-OC43; assay: N protein level of HCoV-OC43 in C3A cells (Western Blotting); type: cell-based, Human coronavirus HCoV-OC43; conditions: 24 h
Experimental: The viral N protein level was determined after 24 h.
The effect of IMB-C5 and IMB-85 on N protein level of coronavirus HCoV-OC43 was determined. C3A cells were infected at a viral load of MOI=0.037, and simultaneously administered with IMB-C5 (10 μM), IMB-85 (10 μM, 2 μ, 0.4 μM and 0.08 μM) and MNP (the positive control, 15 μM). After 24 h, the protein was extracted for Western blotting.

[8] = test system: HCoV-229E; assay: anti-HCoV-229E activity in Huh7 cells by cytopathic effect (CPE) assay; type: cell-based, Human coronavirus HCoV-229E; conditions: Human coronavirus 229E, Huh-7, HCoV-229E 100 TCID50 in Huh7 cells, about 48 h
[9] = test system: HCoV-229E; assay: N protein level of HCoV-229E in Huh7 cells (Western Blotting); type: cell-based, Human coronavirus HCoV-229E; conditions: 24 h
[10] = test system: HCoV-229E; assay: time-of-addition experiment, HCoV-229E in Huh7 cells (Western blotting and immunofluorescence); type: cell-based, Human coronavirus HCoV-229E; parameters: dose or concentration left out as unconfirmed
[11] = test system: HCoV-229E; assay: mRNA level of HCoV-229E N protein in Huh7.5 cells (RT-qPCR); type: cell-based, Human coronavirus HCoV-229E; conditions: MOI=0.035, three concentrations, 24 h
[12] = test system: HCoV-OC43; assay: time-of-addition experiment, HCoV-OC43 in C3A cells (immunofluorescence assay); type: cell-based, Human coronavirus HCoV-OC43; conditions: 50 μM
[13] = in vitro; conditions: human
[14] = from reference [5]; cited from earlier work
[15] = test system: HCoV-OC43; assay: mRNA level of HCoV-OC43 N protein in C3A cells (RT-qPCR); type: cell-based, Human coronavirus HCoV-OC43; conditions: MOI=0.023, three concentrations, 24 h
[16] = in vitro; conditions: human; remark: listed apart in the source
[17] = in vitro; conditions: African green monkey
[18] = MOI=17, IMB-85 3, 0.6 and 0.12 μM

CCCCc1ccc(Cn2c(NCCO)nc3c2c(=O)n(C)c(=O)n3C)cc1 [IMB-85, 7-(4-butylbenzyl)-8-((2-hydroxyethyl)amino)-1,3-dimethyl-3,7-dihydro-1H-purine-2,6-dione]
CC50 at 48 h [1]: > 200 µM | mRNA level of HCoV-229E N protein [2, 18]: decreased mRNA and protein level of HCoV-229E N protein in Huh7 cells in a dose-dependent manner | dsRNA production during replication of HCoV-229E ([3]; MOI=17, 24 h): inhibited dsRNA production | N protein level of HCoV-229E [4]: decreased the HCoV-229E N protein level in Huh7.5 cells in a dose-dependent manner | pEC50 [5]: 5.39 | CC50 at 48 h [6]: > 200 µM | N protein level of HCoV-OC43 ([7]; MOI=0.037, IMB-85 10, 2, 0.4 and 0.08 μM): decreased the HCoV-OC43 N protein level in C3A cells in a dose-dependent manner | pEC50 [8]: 7.05 | N protein level of HCoV-229E ([9]; MOI=1, 5 μM compound): best activity in decreasing HCoV-229E N protein level | N protein level of HCoV-229E ([9]; MOI=1, different concentrations): decreased the HCoV-229E N protein level in Huh7 cells in a dose-dependent manner | protein level of HCoV-229E N protein [9, 18]: decreased mRNA and protein level of HCoV-229E N protein in Huh7 cells in a dose-dependent manner | antiviral effect (N protein and dsRNA level), time of addition ([10]; IMB-85, HCoV-229E MOI=10, administered 6 h or more after infection): diminished antiviral effect | antiviral effect (N protein and dsRNA level), time of addition ([10]; IMB-85, HCoV-229E MOI=10, at the time of infection or within 1-5 h after infection): significant inhibitory effect on virus

COc1cccc(Cn2c(NCCO)nc3c2c(=O)n(C)c(=O)n3C)c1 [IMB-C5]
mRNA level of HCoV-229E N protein [11]: decreased mRNA level of HCoV-229E N protein in both Huh7 and Huh7.5 cells in a dose-dependent manner | antiviral effect, time of addition ([12]; HCoV-OC43 MOI=0.28, administered 1 h to 4 h after infection): better antiviral effect | antiviral effect, time of addition ([12]; HCoV-OC43 MOI=0.28, administered 6 h or more after infection): greatly diminished antiviral effect | antiviral effect, time of addition ([12]; HCoV-OC43 MOI=0.28, administered at the time of virus infection): most significant inhibitory effect on virus | CC50 [13]: > 139 µM | CC50 at 48 h [1]: > 200 µM | mRNA level of HCoV-229E N protein ([2]; MOI=0.035, three concentrations): decreased mRNA level of HCoV-229E N protein in both Huh7 and Huh7.5 cells in a dose-dependent manner | effect on blood lipids and atherosclerotic plaque formation [14]: good effect on lowering blood lipids and inhibiting atherosclerotic plaque formation | dsRNA production during replication of HCoV-229E ([3]; MOI=0.035, gradient concentrations, 24 h): had an inhibitory effect on dsRNA production | dsRNA production during replication of HCoV-229E ([3]; MOI=17, 24 h): inhibited dsRNA production | pEC50 [5]: 4.57 | mRNA level of HCoV-OC43 N protein [15]: decreased mRNA level of HCoV-OC43 N protein in C3A cells in a dose-dependent manner | CC50 at 48 h [6]: > 200 µM | N protein level of HCoV-OC43 ([7]; MOI=0.023, three concentrations): inhibited the expression of the viral N protein in a dose-dependent manner | pEC50 [8]: 5.18 | CC50 [16]: > 139 µM | CC50 [17]: 493 µM

Cn1c(=O)c2c(nc(NCCO)n2Cc2cccc(Cl)c2)n(C)c1=O [IMB-2-5, 7-(3-chlorobenzyl)-8-((2-hydroxyethyl)amino)-1,3-dimethyl-3,7-dihydro-1H-purine-2,6-dione]
pEC50 [8]: 5.88 | CC50 [16]: 200 µM | N protein level of HCoV-229E ([9]; MOI=1, 5 μM compound): inhibited HCoV-229E in Huh7 cells to different degrees

Cn1c(=O)c2c(nc(NCCO)n2Cc2cccc(OC(F)(F)F)c2)n(C)c1=O [IMB-92, 8-((2-hydroxyethyl)amino)-1,3-dimethyl-7-(3-(trifluoromethoxy)benzyl)-3,7-dihydro-1H-purine-2,6-dione]
pEC50 [8]: 6.19 | CC50 [16]: 144 µM | N protein level of HCoV-229E ([9]; MOI=1, 5 μM compound): inhibited HCoV-229E in Huh7 cells to different degrees

Cn1c(=O)c2c(nc(NCCO)n2CC2CCOCC2)n(C)c1=O [IMB-3-19, ((2-hydroxyethyl)amino)-1,3-dimethyl-7-((tetrahydro-2H-pyran-4-yl)methyl)-3,7-dihydro-1H-purine-2,6-dione]
pEC50 [8]: 5.73 | CC50 [16]: > 200 µM | N protein level of HCoV-229E ([9]; MOI=1, 5 μM compound): inhibited HCoV-229E in Huh7 cells to different degrees

COc1cccc(Cn2c(NCc3ccc(F)c(C(F)(F)F)c3)nc3c2c(=O)n(C)c(=O)n3C)c1 [IMB-ZH-11, 8-((4-fluoro-3-(trifluoromethyl)benzyl)amino)-7-(3-methoxybenzyl)-1,3-dimethyl-3,7-dihydro-1H-purine-2,6-dione]
CC50 [13]: > 102 µM | pEC50 [5]: 4.58 | pEC50 [8]: 4.68 | CC50 [16]: > 102 µM

Cn1c(=O)c2c(nc(NCCO)n2Cc2cccc(Cl)c2F)n(C)c1=O [IMB-ZHB-4x, 7-(3-chloro-2-fluorobenzyl)-8-((2-hydroxyethyl)amino)-1,3-dimethyl-3,7-dihydro-1H-purine-2,6-dione]
CC50 [13]: 91 µM | pEC50 [5]: 5.07 | pEC50 [8]: 5.42 | CC50 [16]: 91 µM

Cn1c(=O)c2c(nc(NCCO)n2Cc2ccc(Cl)cc2)n(C)c1=O [IMB-2-14]
pEC50 [8]: 5.84 | CC50 [16]: 200 µM | N protein level of HCoV-229E ([9]; MOI=1, 5 μM compound): inhibited HCoV-229E in Huh7 cells to different degrees

COc1cccc(Cn2c(N[C@@H](CO)C(C)C)nc3c2c(=O)n(C)c(=O)n3C)c1 [IMB-ZH-12, (R)-8-((1-hydroxy-3-methylbutan-2-yl)amino)-7-(3-methoxybenzyl)-1,3-dimethyl-3,7-dihydro-1H-purine-2,6-dione]
CC50 [13]: > 125 µM | pEC50 [5]: 4.22 | pEC50 [8]: 4.22 | CC50 [16]: > 125 µM

COCCNc1nc2c(c(=O)n(C)c(=O)n2C)n1Cc1cccc(OC)c1 [IMB-ZH-10, 7-(3-methoxybenzyl)-8-((2-methoxyethyl)amino)-1,3-dimethyl-3,7-dihydro-1H-purine-2,6-dione]
CC50 [13]: > 134 µM | pEC50 [5]: 4.72 | pEC50 [8]: 5.07 | CC50 [16]: > 134 µM

Cn1c(=O)c2c(nc(NCCO)n2Cc2ccc(OC(F)F)cc2)n(C)c1=O [IMB-2-8, 7-(4-(difluoromethoxy)benzyl)-8-((2-hydroxyethyl)amino)-1,3-dimethyl-3,7-dihydro-1H-purine-2,6-dione]
pEC50 [8]: 5.61 | CC50 [16]: > 200 µM | N protein level of HCoV-229E ([9]; MOI=1, 5 μM compound): inhibited HCoV-229E in Huh7 cells to different degrees

COc1cccc(Cn2c(NC[C@@H](C)O)nc3c2c(=O)n(C)c(=O)n3C)c1 [IMB-ZHC-6, (R)-8-((2-hydroxypropyl)amino)-7-(3-methoxybenzyl)-1,3-dimethyl-3,7-dihydro-1H-purine-2,6-dione]
CC50 [13]: > 134 µM | pEC50 [5]: 4.23 | pEC50 [8]: 4.90 | CC50 [16]: > 134 µM

Cc1ccccc1Cn1c(NCCO)nc2c1c(=O)n(C)c(=O)n2C [IMB-68, 8-((2-hydroxyethyl)amino)-1,3-dimethyl-7-(2-methylbenzyl)-3,7-dihydro-1H-purine-2,6-dione]
pEC50 [8]: 5.84 | CC50 [16]: 200 µM | N protein level of HCoV-229E ([9]; MOI=1, 5 μM compound): inhibited HCoV-229E in Huh7 cells to different degrees

Cn1c(=O)c2c(nc(NCCO)n2Cc2ccc(C(C)(C)C)cc2)n(C)c1=O [IMB-84, 7-(4-(tert-butyl)benzyl)-8-((2-hydroxyethyl)amino)-1,3-dimethyl-3,7-dihydro-1H-purine-2,6-dione]
CC50 [13]: > 259 µM | pEC50 [5]: 4.91 | pEC50 [8]: 4.81 | CC50 [16]: > 259 µM

Cn1c(=O)c2c(nc(NCCO)n2Cc2c(F)cccc2F)n(C)c1=O [IMB-93, 7-(2,6-difluorobenzyl)-8-((2-hydroxyethyl)amino)-1,3-dimethyl-3,7-dihydro-1H-purine-2,6-dione]
pEC50 [8]: 5.61 | CC50 [16]: > 200 µM | N protein level of HCoV-229E ([9]; MOI=1, 5 μM compound): inhibited HCoV-229E in Huh7 cells to different degrees

COc1cccc(Cn2c(NCC(N)=O)nc3c2c(=O)n(C)c(=O)n3C)c1 [IMB-ZHC-15, ((7-(3-methoxybenzyl)-1,3-dimethyl-2,6-dioxo-2,3,6,7-tetrahydro-1H-purin-8-yl)amino)acetamide]
CC50 [13]: > 134 µM | pEC50 [5]: 4.23 | pEC50 [8]: 4.35 | CC50 [16]: > 134 µM
